Measured values reported in ChEMBL document CHEMBL1133710 (J Med Chem, 2000).

Experiments:
D(2) dopamine receptor [1] = target: T1, D(2) dopamine receptor (Homo sapiens, UniProt P14416); assay: Binding Affinity of Compound of Dopamine receptor D2S
D(2) dopamine receptor [2] = target: T1, D(2) dopamine receptor; assay: Binding Affinity was determined in the presence of 100 micro M Gpp(NH)p for decoupling of the ternary complex of Compound to Dopamine receptor D2S
D(4) dopamine receptor [3] = target: T2, D(4) dopamine receptor (Homo sapiens, UniProt P21917); assay: Binding Affinity was tested on the high affinity site of Dopamine receptor D4.4
T2 sequence (P21917 whole entry): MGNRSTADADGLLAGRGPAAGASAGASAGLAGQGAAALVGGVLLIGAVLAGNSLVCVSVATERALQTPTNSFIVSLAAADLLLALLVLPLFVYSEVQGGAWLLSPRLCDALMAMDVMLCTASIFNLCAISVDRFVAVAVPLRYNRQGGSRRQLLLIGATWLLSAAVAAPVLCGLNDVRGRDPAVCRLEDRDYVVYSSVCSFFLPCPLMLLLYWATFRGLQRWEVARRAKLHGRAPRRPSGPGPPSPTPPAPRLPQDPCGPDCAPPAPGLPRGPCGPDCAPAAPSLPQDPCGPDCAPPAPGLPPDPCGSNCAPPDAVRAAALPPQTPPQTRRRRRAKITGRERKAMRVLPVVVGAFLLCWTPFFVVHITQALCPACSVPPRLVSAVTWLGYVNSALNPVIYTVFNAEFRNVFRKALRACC

D(4) dopamine receptor [4] = target: T2, D(4) dopamine receptor; assay: Binding Affinity was tested on low Affinity Site of Dopamine receptor D4.4
D(2) dopamine receptor [5] = target: T1, D(2) dopamine receptor; assay: Binding Affinity was determined in the presence of 100 micro M Gpp(NH)p for decoupling of the ternary complex of Compound to Dopamine receptor D2L
D(2) dopamine receptor [6] = target: T1, D(2) dopamine receptor; assay: Binding Affinity was tested on low Affinity Site of Dopamine receptor D2L
D(2) dopamine receptor [7] = target: T1, D(2) dopamine receptor; assay: Dissociation constant of compound on one-site model Dopamine receptor D2S
D(2) dopamine receptor [8] = target: T1, D(2) dopamine receptor; assay: Dissociation constant of compound on one-site model Dopamine receptor D2L
D(4) dopamine receptor [9] = target: T2, D(4) dopamine receptor; assay: Dissociation constant of compound on one-site model Dopamine receptor D4.4
D(3) dopamine receptor [10] = target: T3, D(3) dopamine receptor (Homo sapiens, UniProt P35462); assay: Binding Affinity was determined in the presence of 100 micro M Gpp(NH)p for decoupling of the ternary complex of Compound to Dopamine receptor D3
T3 sequence (P35462 whole entry): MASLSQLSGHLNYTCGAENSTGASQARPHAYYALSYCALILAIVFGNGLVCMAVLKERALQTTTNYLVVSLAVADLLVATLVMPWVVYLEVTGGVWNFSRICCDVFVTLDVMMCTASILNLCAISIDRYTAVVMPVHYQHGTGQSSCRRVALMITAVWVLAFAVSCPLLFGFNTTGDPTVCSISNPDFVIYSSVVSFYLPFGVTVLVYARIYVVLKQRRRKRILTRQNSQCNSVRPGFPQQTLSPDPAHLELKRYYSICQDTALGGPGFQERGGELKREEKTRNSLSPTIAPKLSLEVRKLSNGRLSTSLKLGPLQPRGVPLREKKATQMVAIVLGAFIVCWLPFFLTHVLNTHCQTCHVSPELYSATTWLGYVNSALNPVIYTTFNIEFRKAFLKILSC

D(3) dopamine receptor [11] = target: T3, D(3) dopamine receptor; assay: Binding Affinity was tested on low Affinity Site of Dopamine receptor D3
D(3) dopamine receptor [12] = target: T3, D(3) dopamine receptor; assay: Dissociation constant of compound on one-site model Human Dopamine receptor D3
D(2) dopamine receptor [13] = target: T1, D(2) dopamine receptor
D(2) dopamine receptor [14] = target: T1, D(2) dopamine receptor; remark: listed apart in the source
D(3) dopamine receptor [15] = target: T3, D(3) dopamine receptor
D(2) dopamine receptor [16] = target: T4, D(2) dopamine receptor (Bos taurus, UniProt P20288); assay: Binding Affinity was tested on high Affinity Site of Bovine Dopamine D2 Receptor. Tested for ability to displace the radioligand [3H]-Spiperone
T4 sequence (P20288 whole entry): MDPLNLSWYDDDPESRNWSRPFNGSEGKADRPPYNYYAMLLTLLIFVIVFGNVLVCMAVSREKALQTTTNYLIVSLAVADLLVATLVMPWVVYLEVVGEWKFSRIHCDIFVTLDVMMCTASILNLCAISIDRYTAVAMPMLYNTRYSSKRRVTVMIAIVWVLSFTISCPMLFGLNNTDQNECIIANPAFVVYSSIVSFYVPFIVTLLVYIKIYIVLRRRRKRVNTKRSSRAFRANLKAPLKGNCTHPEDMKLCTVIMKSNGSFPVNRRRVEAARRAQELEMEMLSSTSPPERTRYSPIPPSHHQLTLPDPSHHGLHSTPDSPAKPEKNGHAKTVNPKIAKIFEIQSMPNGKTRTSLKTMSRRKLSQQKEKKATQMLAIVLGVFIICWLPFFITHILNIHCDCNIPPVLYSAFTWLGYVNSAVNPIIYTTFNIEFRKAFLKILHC

D(2) dopamine receptor [17] = target: T4, D(2) dopamine receptor; assay: Dissociation constant of compound on one-site model Bovine dopamine receptor D2. Tested for ability to displace the radioligand [3H]spiperone at the binding site.
D(2) dopamine receptor [18] = target: T4, D(2) dopamine receptor; assay: Binding Affinity was determined for decoupling of the ternary complex of Compound to Bovine dopamine receptor D2. Tested for ability to displace the radioligand [3H]spiperone at the binding site.
D(2) dopamine receptor [19] = target: T4, D(2) dopamine receptor; assay: Binding Affinity was tested on high Affinity Site of Bovine dopamine receptor D2. Tested for ability to displace the radioligand [3H]pramipexole at the binding site.
D(2) dopamine receptor [20] = target: T4, D(2) dopamine receptor; assay: Binding Affinity was tested on low Affinity Site of Bovine dopamine receptor D2. Tested for ability to displace the radioligand [3H]spiperone at the binding site.
D(3) dopamine receptor [21] = target: T3, D(3) dopamine receptor; assay: Dissociation constant of compound on one-site model Dopamine receptor D3
D(1A) dopamine receptor [22] = target: T5, D(1A) dopamine receptor (Bos taurus, UniProt Q95136); assay: Binding Affinity was tested on High Affinity Site of Bovine dopamine receptor D1. Tested for ability to displace the radioligand [3H]-SCH- 23390
T5 sequence (Q95136 whole entry): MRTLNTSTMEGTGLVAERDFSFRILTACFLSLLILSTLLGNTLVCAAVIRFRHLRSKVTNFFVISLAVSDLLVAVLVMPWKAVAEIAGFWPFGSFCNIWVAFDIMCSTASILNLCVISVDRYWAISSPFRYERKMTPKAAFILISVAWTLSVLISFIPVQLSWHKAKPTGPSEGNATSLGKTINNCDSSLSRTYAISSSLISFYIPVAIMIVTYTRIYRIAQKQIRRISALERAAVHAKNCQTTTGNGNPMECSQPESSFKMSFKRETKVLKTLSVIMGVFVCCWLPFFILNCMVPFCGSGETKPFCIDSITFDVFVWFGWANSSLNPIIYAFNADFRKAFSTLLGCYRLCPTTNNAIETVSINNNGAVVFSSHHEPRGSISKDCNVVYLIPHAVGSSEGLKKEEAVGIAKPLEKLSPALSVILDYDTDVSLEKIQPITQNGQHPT

D(1A) dopamine receptor [23] = target: T5, D(1A) dopamine receptor; assay: Binding Affinity was tested on High Affinity Site of Bovine Dopamine D1 Receptor. Tested for ability to displace the radioligand [3H]-SCH- 23390
D(2) dopamine receptor [24] = target: T1, D(2) dopamine receptor; assay: Binding Affinity was tested on High Affinity Site of Dopamine receptor D2L
D(2) dopamine receptor [25] = target: T1, D(2) dopamine receptor; assay: Binding Affinity was tested on High Affinity Site of Dopamine receptor D2S
D(1A) dopamine receptor [26] = target: T5, D(1A) dopamine receptor; assay: Binding Affinity was tested for its ability to displace the radioligand [3H]-SCH- 23390 from High Affinity Site of Bovine dopamine receptor D1
D(2) dopamine receptor [27] = target: T1, D(2) dopamine receptor; remark: listed apart in the source
D(2) dopamine receptor [28] = target: T1, D(2) dopamine receptor; remark: listed apart in the source
D(3) dopamine receptor [29] = target: T3, D(3) dopamine receptor; remark: listed apart in the source

T1 sequence (P14416 whole entry): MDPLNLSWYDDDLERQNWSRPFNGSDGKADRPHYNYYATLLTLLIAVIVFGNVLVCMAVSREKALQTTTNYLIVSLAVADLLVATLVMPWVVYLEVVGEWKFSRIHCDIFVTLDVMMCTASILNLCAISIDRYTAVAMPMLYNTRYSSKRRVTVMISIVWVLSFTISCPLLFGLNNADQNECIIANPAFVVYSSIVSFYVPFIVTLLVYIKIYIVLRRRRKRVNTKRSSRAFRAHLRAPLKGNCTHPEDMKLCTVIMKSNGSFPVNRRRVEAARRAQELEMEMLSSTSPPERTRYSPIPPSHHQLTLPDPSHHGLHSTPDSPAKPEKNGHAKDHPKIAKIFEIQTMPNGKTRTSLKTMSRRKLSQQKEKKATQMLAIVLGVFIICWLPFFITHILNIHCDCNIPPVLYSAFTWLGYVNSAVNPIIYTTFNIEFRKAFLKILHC

Q: Which results are given for C#CC1=CCC(N(CCC)CCC)CC1 (stereo unspecified)?
A: Ki (D(2) dopamine receptor [1]): 12 µM; Ki (D(2) dopamine receptor [2]): 17 µM; Ki (D(4) dopamine receptor [3]): 0.022 µM; Ki (D(4) dopamine receptor [4]): 0.38 µM; Ki (D(2) dopamine receptor [5]): 19 µM; Ki (D(2) dopamine receptor [6]): 14 µM; Ki (D(2) dopamine receptor [7]): 2.9 µM; Ki (D(2) dopamine receptor [8]): 2.8 µM; Ki (D(4) dopamine receptor [9]): 0.17 µM; Ki (D(3) dopamine receptor [10]): 0.72 µM; Ki (D(3) dopamine receptor [11]): 0.59 µM; Ki (D(3) dopamine receptor [12]): 0.35 µM; Ki (D(2) dopamine receptor [13]): 0.25 µM; Ki (D(2) dopamine receptor [14]): 0.27 µM; Ki (D(3) dopamine receptor [15]): 0.0052 µM

Q: Which results are given for CCCN(CCC)C1CC=C(C#C[Si](C)(C)C)CC1 (stereo unspecified)?
A: Ki (D(2) dopamine receptor [16]): 0.15 µM; Ki (D(2) dopamine receptor [1]): > 20 µM; Ki (D(2) dopamine receptor [2]): > 20 µM; Ki (D(4) dopamine receptor [3]): 0.16 µM; Ki (D(4) dopamine receptor [4]): 3.8 µM; Ki (D(2) dopamine receptor [17]): 1.6 µM; Ki (D(2) dopamine receptor [18]): 12 µM; Ki (D(2) dopamine receptor [19]): 0.03 µM; Ki (D(2) dopamine receptor [20]): 7.5 µM; Ki (D(2) dopamine receptor [5]): > 20 µM; Ki (D(2) dopamine receptor [6]): > 20 µM; Ki (D(2) dopamine receptor [7]): > 20 µM; Ki (D(2) dopamine receptor [8]): > 20 µM; Ki (D(4) dopamine receptor [9]): 0.64 µM; Ki (D(3) dopamine receptor [10]): 1.9 µM; Ki (D(3) dopamine receptor [11]): 1.6 µM; Ki (D(3) dopamine receptor [21]): 0.82 µM; Ki (D(1A) dopamine receptor [22]): > 20 µM; Ki (D(2) dopamine receptor [13]): 0.97 µM; Ki (D(2) dopamine receptor [14]): 0.16 µM; Ki (D(3) dopamine receptor [15]): 0.047 µM

Q: For CCCN(CCC)C1CC=C(C#N)CC1 (stereo unspecified), which Ki (D(4) dopamine receptor [3]) is on record?
A: > 20 µM

Q: What about the Ki (D(1A) dopamine receptor [22]) of the same compound?
A: > 20 µM

Q: What about the Ki (D(2) dopamine receptor [13]) of the same compound?
A: > 20 µM

Q: What about the Ki (D(2) dopamine receptor [14]) of the same compound?
A: > 20 µM

Q: What about the Ki (D(3) dopamine receptor [15]) of the same compound?
A: 13 µM

Q: How did the Ki (D(1A) dopamine receptor [23]) turn out when CCCN(CCC)C1CCC(=C(C#C[Si](C)(C)C)C#C[Si](C)(C)C)CC1 (stereo unspecified) was run?
A: 3.9 µM

Q: And the Ki (D(4) dopamine receptor [3])?
A: 1.9 µM

Q: And the Ki (D(2) dopamine receptor [13])?
A: 13 µM

Q: And the Ki (D(2) dopamine receptor [14])?
A: 11 µM

Q: What about the Ki (D(3) dopamine receptor [15]) of the same compound?
A: 2.8 µM

Q: How did the Ki (D(4) dopamine receptor [3]) turn out when CCCN(CCC)C1CCC(=C(C#N)C#N)CC1 (stereo unspecified) was run?
A: > 20 µM

Q: And the Ki (D(1A) dopamine receptor [22])?
A: > 20 µM

Q: What about the Ki (D(2) dopamine receptor [13]) of the same compound?
A: 15 µM

Q: What about the Ki (D(2) dopamine receptor [14]) of the same compound?
A: > 20 µM

Q: And the Ki (D(3) dopamine receptor [15])?
A: 1.6 µM

Q: Which Ki (D(1A) dopamine receptor [23]) does the source give for C#CC(C#C)=C1CCC(N(CCC)CCC)CC1 (stereo unspecified) here?
A: 16 µM

Q: What about the Ki (D(4) dopamine receptor [3]) of the same compound?
A: 3.9 µM

Q: And the Ki (D(2) dopamine receptor [13])?
A: > 20 µM

Q: And the Ki (D(2) dopamine receptor [14])?
A: 12 µM

Q: And the Ki (D(3) dopamine receptor [15])?
A: 4.4 µM

Q: For CCCN(CCC)C1CCC(=C(C#Cc2ccccc2)C#Cc2ccccc2)CC1 (stereo unspecified), which Ki (D(4) dopamine receptor [3]) is on record?
A: 1.4 µM

Q: And the Ki (D(1A) dopamine receptor [22])?
A: 2.2 µM

Q: What about the Ki (D(2) dopamine receptor [13]) of the same compound?
A: 7.3 µM

Q: And the Ki (D(2) dopamine receptor [14])?
A: 5.2 µM

Q: And the Ki (D(3) dopamine receptor [15])?
A: 1.8 µM

Q: Which results are given for CCCN(CCC)C1CC=C(C#Cc2ccccc2)CC1 (stereo unspecified)?
A: Ki (D(4) dopamine receptor [3]): 16 µM; Ki (D(2) dopamine receptor [24]): 15 µM; Ki (D(2) dopamine receptor [25]): 15 µM; Ki (D(1A) dopamine receptor [22]): > 20 µM; Ki (D(3) dopamine receptor [15]): 3.5 µM

Q: CCCN(CCC)C1CCC(=CC#N)CC1 (stereo unspecified) was tested. Which Ki (D(4) dopamine receptor [3]) did it give?
A: > 20 µM

Q: And the Ki (D(1A) dopamine receptor [26])?
A: > 20 µM

Q: And the Ki (D(2) dopamine receptor [27])?
A: > 20 µM

Q: What about the Ki (D(2) dopamine receptor [28]) of the same compound?
A: > 20 µM

Q: What about the Ki (D(3) dopamine receptor [29]) of the same compound?
A: 13 µM
